Data from US9126999B2, “Tetrahydropyrazolopyrimidine compounds” (EISAI R&D MANAGEMENT CO., LTD., priority 2012, dated 2015).
Where “and” joins values, the source holds several entries; their conditions need not be identical. Equal values may be shown once. Read-outs that look alike come from different tables or passages of the source.

Tests used:
[1] = target: T1, Mouse TLR7 (Mus musculus, UniProt P58681); test: Short-term in vivo (STIV) assay: plasma IL-6 after s.c. R848
T1 construct: endogenous in cells; host or cells: female BALB/c mice, in vivo
T1 sequence (P58681 27-1050): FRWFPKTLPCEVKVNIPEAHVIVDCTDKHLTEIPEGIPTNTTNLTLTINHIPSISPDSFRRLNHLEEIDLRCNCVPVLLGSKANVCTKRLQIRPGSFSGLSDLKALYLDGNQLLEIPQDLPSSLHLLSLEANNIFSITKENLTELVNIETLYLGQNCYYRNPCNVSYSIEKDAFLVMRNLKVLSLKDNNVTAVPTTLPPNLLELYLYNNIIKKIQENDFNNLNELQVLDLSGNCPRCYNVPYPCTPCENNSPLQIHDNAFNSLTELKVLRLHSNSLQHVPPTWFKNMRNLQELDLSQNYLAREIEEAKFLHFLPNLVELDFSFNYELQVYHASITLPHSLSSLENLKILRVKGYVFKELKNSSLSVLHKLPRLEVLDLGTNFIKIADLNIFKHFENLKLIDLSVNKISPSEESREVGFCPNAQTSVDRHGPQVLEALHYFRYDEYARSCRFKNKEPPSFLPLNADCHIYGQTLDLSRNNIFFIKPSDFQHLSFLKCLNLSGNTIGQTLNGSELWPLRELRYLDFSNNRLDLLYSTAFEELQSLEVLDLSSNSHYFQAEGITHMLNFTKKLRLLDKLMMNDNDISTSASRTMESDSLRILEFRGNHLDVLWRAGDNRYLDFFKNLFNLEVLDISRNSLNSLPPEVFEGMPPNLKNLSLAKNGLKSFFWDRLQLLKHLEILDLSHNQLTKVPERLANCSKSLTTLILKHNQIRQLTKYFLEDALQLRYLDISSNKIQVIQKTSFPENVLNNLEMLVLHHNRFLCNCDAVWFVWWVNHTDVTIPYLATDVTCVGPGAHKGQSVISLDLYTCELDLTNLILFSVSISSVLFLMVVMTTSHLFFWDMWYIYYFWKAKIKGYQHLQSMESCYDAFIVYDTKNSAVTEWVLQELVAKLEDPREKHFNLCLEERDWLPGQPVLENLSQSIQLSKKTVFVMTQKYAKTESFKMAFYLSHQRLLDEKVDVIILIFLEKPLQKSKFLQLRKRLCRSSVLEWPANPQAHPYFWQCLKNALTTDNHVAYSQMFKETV
Description: Figure Legend: Female BALB/c mice were dosed by oral gavage with Vehicle alone (0.5% aqueous methyl-cellulose) or compound ER-892887 formulated in Vehicle at 100 mg/kg or 300 mg/kg. At 13 or 24 hours following oral dosing, mice were injected subcutaneously with 15 ug R848 to stimulate TLR7. Blood plasma was collected by cardiac puncture, and the IL-6 level at 1.5 hours after TLR7 stimulation was then assessed by standard ELISA procedure. Percent suppression indicated is relative to IL-6 induction following Vehicle control dosing. Statistical significance was determined by Mann-Whitney test.
To assess compound potency in vivo against mouse TLR7, a short-term in vivo (STIV) assay was utilized. Briefly, mice were orally dosed with compounds and at various time points afterwards were injected subcutaneously with agonist R848 to stimulate TLR7. The plasma IL-6 level following R848 stimulation was then measured by ELISA to assess compound potency and duration-of-action. […] Therefore, the activity of compounds in the STIV assay can be confidently attributed to their modulation of the TLR7 pathway. A single oral dose of ER-892887 at 300 mg/kg suppresses the R848/TLR7/IL-6 pathway in vivo by 80-90% for at least 24 hours (see FIG. 1).
Six to eight week old female BALB/c mice (Jackson Labs, Bar Harbor, Me.) were dosed by oral gavage in 200 ul volume with antagonist compounds formulated in 0.5% aqueous methyl-cellulose (Sigma, St. Louis, Mo.). At various time points afterwards, mice were injected subcutaneously (s.c.) in 100 ul volume with 15 ug R848 (Resiquimod; GLSynthesis, Worcester, Mass.) to stimulate TLR7. Blood plasma was collected by cardiac puncture, and levels of IL-6 at 1.5 hours after TLR7 stimulation were then assessed by standard ELISA procedure according to the manufacturer's recommended protocol (R&D Systems).

[2] = tested on: T2, Human TLR7/8; test: Human PBMC cell-based assay, RNA-Ig (SL4-Ig) stimulus, cytokine ELISA
T2 construct: IC50; other: Hu PBMC; ligand RNA-Ig; analyte IL-6; analyte TNFα; ligand R848; IC50 against the RNA-Ig TLR7/8 stimulus; cytokine responses to RNA-Ig complexes in vitro; potency against the RNA-Ig TLR7/8 stimulus versus HCQ
Description: Briefly, 25 ml blood was diluted with 15 ml PBS (without Ca^2+, Mg^2+) in a 50 ml conical tube, and 12 ml Histopaque was underlaid using a spinal needle. Tubes were centrifuged for 45 minutes at 1200 rpm (350×g), and PBMC were collected from the buffy coat. Cells were then washed twice in PBS, and red blood cells were lysed by suspension in 5 ml ammonium chloride solution (1× Red Blood Cell Lysis Buffer, eBioscience) for 5 minutes at room temperature.
Antagonist compounds solubilized and serial diluted in 100% DMSO were added in triplicate to cells to yield a final concentration of 0.1% DMSO (v/v). Hydroxychloroquine (Acros Organics) solubilized and serial diluted in PBS was added in triplicate to cells. […] The resulting “RNA-Ig” stimulus was incubated at room temperature for 15-30 minutes before adding to cells. PBMC were incubated with the various TLR agonists for 20 hours at 37° C., 5% CO2. Cell culture supernatants were collected, and levels of various human cytokines were assessed as indicated by standard ELISA procedure according to the manufacturer's recommended protocol (BD Biosciences, Inc., San Diego, Calif.).

[3] = time point 6 hr, dose 33 mg/kg oral
[4] = time point 6 hr, dose 100 mg/kg oral
[5] = time point 13 hr, dose 33 mg/kg oral
[6] = time point 13 hr, dose 100 mg/kg oral
[7] = Human PBMC IL-6 Inhibition (SL4-Ig Ligand), read-out: Human PBMC IC50

Question: For `Cc1nn(C)cc1[C@@H]1C[C@H](C(F)(F)F)n2nc(-c3ccc(NC(N)=O)cc3)cc2N1` [ER-894595], which “% Suppression vs. Vehicle” value [1, 3] is on record?
Answer: 0%

Question: What about the “% Suppression vs. Vehicle” value [1, 4] of the same compound?
Answer: 57%

Question: And the “% Suppression vs. Vehicle” value [1, 5]?
Answer: 0%

Question: What about the “% Suppression vs. Vehicle” value [1, 6] of the same compound?
Answer: 0%

Question: And the IC50 [2, 7]?
Answer: 2.16 µM

Question: Which “suppression of the R848/TLR7/IL-6 pathway in vivo” value ([1]; single oral dose 300 mg/kg) does the source give for `COc1ccc([C@@H]2C[C@H](C(F)(F)F)n3nc(-c4ccc(C(=O)N5CCNCC5)cc4)cc3N2)cc1OC` [ER-892887, (4-((5S,7R)-5-(3,4-dimethoxyphenyl)-7-(trifluoromethyl)-4,5,6,7-tetrahydropyrazolo[1,5-a]pyrimidin-2-yl)phenyl)(piperazin-1-yl)methanone] here?
Answer: 80-90%

Question: What about the “duration of suppression of the R848/TLR7/IL-6 pathway in vivo” value ([1]; single oral dose 300 mg/kg, 80-90% suppression) of the same compound?
Answer: at least 24 hours

Question: What about the “% Suppression vs. Vehicle” value [1, 3] of the same compound?
Answer: 83%

Question: What about the “% Suppression vs. Vehicle” value [1, 4] of the same compound?
Answer: 100%

Question: What about the “% Suppression vs. Vehicle” value ([1]; time point 13 hr, dose 11 mg/kg oral) of the same compound?
Answer: 27%

Question: What about the “% Suppression vs. Vehicle” value [1, 5] of the same compound?
Answer: 12%

Question: And the “% Suppression vs. Vehicle” value [1, 6]?
Answer: 49%

Question: What about the “% Suppression vs. Vehicle” value ([1]; time point 13 hr, dose 300 mg/kg oral) of the same compound?
Answer: 90%

Question: And the “% Suppression vs. Vehicle” value ([1]; time point 24 hr, dose 33 mg/kg oral)?
Answer: 0%

Question: And the “% Suppression vs. Vehicle” value ([1]; time point 24 hr, dose 100 mg/kg oral)?
Answer: 12%

Question: And the “% Suppression vs. Vehicle” value ([1]; time point 24 hr, dose 300 mg/kg oral)?
Answer: 86%

Question: And the “cytokine responses to RNA-Ig complexes in vitro” value [2]?
Answer: blocks

Question: What about the IC50 ([2]; Hu PBMC, ligand RNA-Ig, analyte TNFα, read-out: IC50) of the same compound?
Answer: 0.013 µM

Question: And the IC50 [2, 7]?
Answer: 0.04 µM and 0.051 µM

Question: And the “potency against the RNA-Ig TLR7/8 stimulus versus HCQ” value ([2]; ratio of IC50 values, more potent than HCQ)?
Answer: approximately 100 fold

Question: And the IC50 ([2]; read-out: IC50 against the RNA-Ig TLR7/8 stimulus)?
Answer: 0.015 µM

Question: How did the IC50 [2, 7] turn out when `Cc1nn(C)cc1[C@H]1C[C@@H](C(F)(F)F)n2nc(-c3ccc(NC(N)=O)cc3)cc2N1` [ER-894596] was run?
Answer: 1.75 µM

Question: What does the source list for `COc1ccc([C@@H]2C[C@H](C(F)(F)F)n3nc(-c4ccncc4)cc3N2)cc1OC` [ER-885454]?
Answer: % Suppression vs. Vehicle ([1]; time point 19 hr, dose 100 mg/kg oral): 56%; % Suppression vs. Vehicle ([1]; time point 19 hr, dose 300 mg/kg oral): 100%; IC50 [2, 7]: 0.676 µM
